Assay results taken from patent US6479549B2, “Carnosic acid derivatives for promoting synthesis of nerve growth factor” (Nagase & Company, Ltd., priority 2000, dated 2002).

Experiments:
[1] = test system: Wistar male rats; test: Ethanol-induced stomach ulcers in rats (ulcer index); assay type: in vivo; details: 10 mg/kg body weight oral
Method: To Wistar male rats (5 rats per group) of 180-200 g body weight fasted for 24 hours before the start of a test, carnosic acid diacetate obtained in Example 1 was orally administered in a dose level of 10 mg per kg body weight, after suspending it in water. After 30 minutes of the administration, 1 ml of ethanol (99.5%) was orally administered to each rat. After one hour of the ethanol administration, laparotomy was carried out and the lengths of all ulcers developed in the stomach were measured arld added up. The total lengths of ulcers are taken as ulcer indexes.
The lengths of all ulcers developed in the stomach were measured and added up as described in Example 7, except that water containing carnosic acid methyl ester (10 mg per kg body weight) was used instead of water containing carnosic acid diacetate. The total lengths of ulcers are taken as ulcer indexes.
The lengths of all ulcers developed in the stomach were measured and added up as described in Example 7, except that water not containing carnosic acid diacetate was used instead of water containing carnosic acid diacetate. The total lengths of ulcers are taken as ulcer indexes.

[2] = test system: Human glioblastoma cells (T98G cell line); test: NGF content in culture supernatant of T98G cells (sandwich enzyme immunoassay); assay type: cell-based; details: for NGF Content in sample solution: 100 uM effective ingredient in Opti-MEM medium, T98G cells, 4 days cultivation, mean ± standard deviation, comparative example (none) 6.3 ± 1.2; for Relative NGF content: 100 uM, ratio of NGF content in example solution to that in comparative example solution (=1.0)
Method: Human glioblastoma cells (T98G cell line) were seeded in a MEM medium containing fetal bovine serum (10%; Gibco), sodium pyruvate (x 1; Gibco) and nonessential amino acids (x 1; Gibco) in wells of a flat-bottom 96-well plate (Corning), in a cell density of 2×10^4/well, and cultivated in a CO2 incubator (37° C., 5% CO2) for 3 days. The medium was then replaced by an Opti-MEM medium (containing 5 mg/ml of bovine serum albumin). The cultivation was continued for further 6 days with replacing the medium at intervals of 3 days.
After removing the medium, an Opti-MEM medium (containing 5 mg/ml of bovine serum albumin) containing 100 uM (micromole) of carnosic acid diacetate obtained in Example 1 was added to each well in an amount of 50 ul (microliter)/well, and the cultivation was continued for further 4 days. After the cultivation, the supernatant was taken as a sample solution.
On the other hand, 1 ug/ml of an anti-NGF antibody (Promega) solution (50 ul) was added to each well of a 96-well microplate (Nunc), and the plate was allowed to stand overnight at 4° C. After washing the plate with PBS(-) (Nissui Pharmaceuticals), 1% of a bovine serum albumin (Sigma) solution (100 ul) was added to each well of the plate and the plate was allowed to stand at room temperature for 4 hrs to block the plate. […]
Subsequently, 0.4 unit/ml of a beta-galactosidase-labeled anti-NGF antibody (Boehringer Mannheim) solution (50 ul) was added to each well of the plate, and allowed to react at room temperature for one hour. […] The fluorescence intensity of 4-methylumbelliferone produced was measured on a fluorescence plate reader, and the content of NGF contained in the sample solution was determined using a standard curve obtained from a standard solution (human beta-NGF; PEPRO TECH EC).
The content of NGF contained in the sample solution was determined as described in Example 4, except that an Opti-MEM medium (containing 5 mg/ml of bovine serum albumin) containing 100 uM of carnosic acid diacetate methyl ester obtained in Example 2 was used in an amount of 50 ul/well, instead of carnosic acid diacetate.
The content of NGF contained in the sample solution was determined as described in Example 4, except that an Opti-MEM medium (containing 5 mg/ml of bovine serum albumin) containing 100 uM of carnosic acid methyl ester obtained in Example 3 was used inan amount of 50 ul/well, instead of carnosic acid diacetate.
The content of NGF contained in the sample solution was determined as described in Example 4, except that an Opti-MEM medium (containing 5 mg/ml of bovine serum albumin) not containing carnosic acid diacetate was used in an amount of 50 ul/well, instead of the Opti-MEM medium containing carnosic acid diacetate.

SMILES | Ulcer index ([1]; 30 minutes before 1 ml ethanol (99.5%) oral, total length of stomach ulcers 1 hour after ethanol, mean ± standard deviation, comparative example 62.4) | Relative ulcer index ([1]; ratio of ulcer index in example to that in comparative example 2 (=100)) | NGF Content in sample solution [2] | Relative NGF content [2]
COC(=O)[C@]12CCCC(C)(C)C1CCc1cc(C(C)C)c(O)c(O)c12 (stereo partly drawn) [Carnosic acid methyl ester, carnosic acid methyl ester] | 33.6 ± 3.6 mm | 53.8 | 33.3 ± 2.8 pg/mL | 5.3
COC(=O)[C@@]12CCCC(C)(C)[C@H]1CCc1cc(C(C)C)c(OC(C)=O)c(OC(C)=O)c12 [Carnosic acid diacetate methyl ester, carnosic acid diacetate methyl ester] | – | – | 50.6 ± 4.3 pg/mL | 8.0
